Square brackets hold non-standard residues; d marks the D form. Ends that are not written are not given here.
What was measured:
[1] = molecular target: T1, full-length αIIbβ3 integrin (Homo sapiens, UniProt P08514); assay: Fluorescence anisotropy titration with full-length integrin; type: binding; settings: N-octyl-β-D-glucopyranoside micelles, 64 nM labelled peptide, 25° C.
T1 construct: The full-length integrin aIIbβ3 protein in buffer
Procedure: The full-length integrin aIIbβ3 protein in buffer (7.9 mg/ml, 10 mM HEPES (pH=7.5), 60 mM N-octyl-β-D-glucopyranoside, 0.5 mM CaCl2, 0.02% NaN3) was prepared using the previously reported method. Weisel J W et al. J. Biol. Chem. 267, 16637-16643 (1992). Fluorescence polarization experiments were conducted on an ATF 105 spectrofluorometer (Aviv Biomedical, Inc., Lakewood, N.J.) using a 0.3 cm path length cuvette. Spectra were measured at 25° C. using 1.0 nm slit widths. Excitation at 408 nm was used for the coumarin-labeled polypeptide and the emission maximum at 433 nm was monitored. Anisotropy measurements were recorded upon titration of the integrin αIIbβ3 protein at varying concentrations into a polypeptide solution of 64 nM coum-anti-αIIb or coum-anti-αIIbmut. Data analysis was carried out according to previously described methods. See Yin H et al. J. Am. Chem. Soc. 127, 10191-96 (2005).

[2] = tested on: gel-filtered human platelets; assay: Platelet aggregation, turbidometric; type: cell-based; settings: gel-filtered human platelets
Procedure: Platelet-rich plasma, prepared from human blood anti-coagulated with 0.1 volume of 0.13 M sodium citrate, was gel-filtered on Sepharose 2B (Amersham Biosciences, Piscataway, N.J.) using an elution buffer containing 137 mM NaCl, 2.7 mM KCl, 1 mM MgCl2, 5.6 mM glucose, 0.35 mg/ml bovine serum albumin, 3.3 mM NaH2PO4, and 4 mM HEPES (pH=7.4), as previously described. Jordan P et al. Nature 411, 909-917 (2001). Turbidometric measurements of platelet aggregation were performed in a Chrono-Log Lumi-Dual Aggregometer. Aliquots (0.4 ml) of the gel-filtered platelet suspension were supplemented with 200 μg/ml human fibrinogen (Enzyme Research Labs., South Bend, Ind.) and 1 mM CaCl2 (final concentrations) prior to adding platelet agonists. The polypeptide was added from a DMSO solution such that the final concentration of DMSO was no greater than 0.5%. All controls also had 0.5% DMSO in the buffer.

[3] = tested on: gel-filtered human platelets; settings: cited from earlier work

Substance | platelet aggregation response [2] | also measured
coum-anti-αIIb: 7-hydroxycoumarin-3-carboxamide-labeled anti-αIIb, label attached via a linker to the N-terminus (KKAYVMLLPFFIGLLLGLIFGGAFWGPARHLKK; not fully specified (N-terminus, C-terminus); also: label attached via an unspecified linker) |  | apparent Kdiss for αIIbβ3 [1]: 1.3±0.2×10^−5 mole fraction units
KKIFGVLTFLFGYILGALITGAVYWFVQLLAKK [anti-αIIb′] | highly active | 
αIIb-TM: polypeptide spanning residues Trp968 to Lys989 of αIIb (WVLVGVLGGLLLLTILVLAMWK) |  | potency as activator of αIIbβ3 / inducer of platelet aggregation relative to anti-αIIb [3]: substantially less potent
RAWFALFLLIFLGFLLGVATLLVQY ([dR][dA][dW][dF][dA][dL][dF][dL][dL][dI][dF][dL]G[dF][dL][dL]G[dV][dA][dT][dL][dL][dV][dQ][dY]) [d-anti-αIIb] | aggregation of gel-filtered human platelets was induced by increasing concentrations | 
